Measurements as given in publication PMC10926604, “Discovery of a novel small molecule as CD47/SIRPα and PD-1/PD-L1 dual inhibitor for cancer immunotherapy” (Cell Communication and Signaling : CCS, 2024).
Entries after “also recorded” stand apart in the source; their conditions may differ.

What was measured:
human PD-L1 (hPD-L1) = target: T1, human PD-L1 (hPD-L1) (Homo sapiens, UniProt Q9NZQ7); test: MST binding assay, human PD-L1; conditions: PD-L1-IgV-His, read-out: dissociation constant (KD) for human PD-L1
T1 construct: PD-L1-IgV-His (human: 10,084-H08H, mouse: 50,010-M08H, Sino Biological); His; purchased Sino Biological 10,084-H08H
T1 sequence (Q9NZQ7 19-127 limits assumed): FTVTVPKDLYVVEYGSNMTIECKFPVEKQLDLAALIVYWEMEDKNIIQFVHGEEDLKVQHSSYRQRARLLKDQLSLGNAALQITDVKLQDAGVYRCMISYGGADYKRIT
Experimental: (§1) SIPRα-IgV-His (human: SIA-H5225, mouse: SIA-M52H4, ACRO Biosystems) and PD-L1-IgV-His (human: 10,084-H08H, mouse: 50,010-M08H, Sino Biological) proteins were labeled with Red-NHS647 dye (NT-MO-L001, NanoTemper) for subsequent experiments. SMC18 (C385-0664, ChemDiv) was serially diluted using PBST (from 0.0191 μM to 200 μM) and mixed with the labeled proteins. The samples were then aspirated using standard capillaries and assayed by MST instrument (Monolith NT.115, NanoTemper), and the results were analyzed using the analytical software Monolith NT.115 system to calculate the dissociation constant (KD) values.

hCD112R/hCD112 = hCD112R/hCD112 (Homo sapiens, UniProt Q6DKI7+Q92692); test: Blockade of other immune checkpoint pathways, CD112R/CD112; assay type: cell-based; conditions: Fig. S2
Chain of hCD112R/hCD112 (Q6DKI7 whole entry): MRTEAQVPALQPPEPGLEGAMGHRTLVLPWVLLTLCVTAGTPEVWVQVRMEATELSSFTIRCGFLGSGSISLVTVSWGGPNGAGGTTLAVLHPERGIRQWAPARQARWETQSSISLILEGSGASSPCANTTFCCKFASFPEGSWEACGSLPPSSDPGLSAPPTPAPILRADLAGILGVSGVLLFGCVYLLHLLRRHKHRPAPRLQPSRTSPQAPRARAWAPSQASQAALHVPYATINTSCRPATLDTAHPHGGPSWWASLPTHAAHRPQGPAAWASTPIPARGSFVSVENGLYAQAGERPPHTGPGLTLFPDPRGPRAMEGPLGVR
Chain of hCD112R/hCD112 (Q92692 32-538): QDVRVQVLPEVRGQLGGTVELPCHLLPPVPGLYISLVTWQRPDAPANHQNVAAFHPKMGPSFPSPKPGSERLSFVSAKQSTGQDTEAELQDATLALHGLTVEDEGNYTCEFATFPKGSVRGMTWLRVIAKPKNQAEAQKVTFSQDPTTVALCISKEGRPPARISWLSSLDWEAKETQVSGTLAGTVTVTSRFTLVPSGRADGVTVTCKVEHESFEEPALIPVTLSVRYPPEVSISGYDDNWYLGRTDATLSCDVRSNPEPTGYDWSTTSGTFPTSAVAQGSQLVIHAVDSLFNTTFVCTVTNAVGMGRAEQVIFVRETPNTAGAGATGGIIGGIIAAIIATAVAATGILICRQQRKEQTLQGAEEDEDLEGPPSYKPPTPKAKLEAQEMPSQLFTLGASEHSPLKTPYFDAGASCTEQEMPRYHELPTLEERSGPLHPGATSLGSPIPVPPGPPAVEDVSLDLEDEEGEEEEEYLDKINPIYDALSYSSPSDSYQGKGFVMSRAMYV

SIRPα = test: Tyrosine phosphorylation assay of SIRPα, BMDM/MC38 co-culture; assay type: cell-based, mouse; conditions: 50 μM, BMDMs co-cultured with MC38 cells, 30 min, Western blotting
Experimental: Murine bone marrow-derived macrophages were subjected to induction using murine GM-CSF for 7 days. Subsequently, the induced macrophages (2 × 10^6 cells/well) were co-cultured with MC38 cells (1 × 10^7 cells/well). The co-cultures were treated with PBS (negative control), SMC18 (50 μM), or anti-mouse CD47 (clone miap301, 20 μg/mL, positive control) and incubated at 37℃ for 30 min. Following this, cells were washed and lysed. Finally, cell lysates were collected for immunoprecipitation and Western blotting.
In brief, the protein samples were separated by SDS-PAGE using a 4% stacking gel and an 8 ~ 10% main gel and transferred to a polyvinylidene difluoride (PVDF) membrane. The membrane was blocked with 5% milk at room temperature for 1–2 h and then incubated with anti-SIRPα (dilution 1:1000, AB8120, Abcam), anti-PD-1 (dilution 1:200, ab52587, Abcam) or anti-Phosphotyrosine (dilution 1:1000, 05–321, Millipore) dissolved in primary antibody dilution buffer overnight at 4 °C. Then the membrane was washed and incubated with appropriate HRP-coupled goat anti-rabbit IgG (D110058, Sangon Biotech) and HRP-coupled goat anti-mouse IgG (D110087, Sangon Biotech) for 1–2 h at room temperature. Finally, the membranes were exposed using an enhanced chemiluminescence (ECL) detection kit (P1030, Applygen). Results were analyzed by ImageJ software (NIH, Bethesda, MD, United States).

hTIGIT/hPVR = hTIGIT/hPVR (Homo sapiens, UniProt P15151+Q495A1); test: Blockade of other immune checkpoint pathways, TIGIT/PVR; assay type: cell-based; conditions: Fig. S2
Chain of hTIGIT/hPVR (Q495A1 22-244): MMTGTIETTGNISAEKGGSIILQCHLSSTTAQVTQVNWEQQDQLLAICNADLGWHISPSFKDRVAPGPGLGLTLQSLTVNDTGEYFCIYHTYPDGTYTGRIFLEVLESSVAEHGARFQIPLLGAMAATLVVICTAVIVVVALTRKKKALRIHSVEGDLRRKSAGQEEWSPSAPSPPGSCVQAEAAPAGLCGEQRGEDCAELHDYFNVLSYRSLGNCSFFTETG
Chain of hTIGIT/hPVR (P15151 21-417): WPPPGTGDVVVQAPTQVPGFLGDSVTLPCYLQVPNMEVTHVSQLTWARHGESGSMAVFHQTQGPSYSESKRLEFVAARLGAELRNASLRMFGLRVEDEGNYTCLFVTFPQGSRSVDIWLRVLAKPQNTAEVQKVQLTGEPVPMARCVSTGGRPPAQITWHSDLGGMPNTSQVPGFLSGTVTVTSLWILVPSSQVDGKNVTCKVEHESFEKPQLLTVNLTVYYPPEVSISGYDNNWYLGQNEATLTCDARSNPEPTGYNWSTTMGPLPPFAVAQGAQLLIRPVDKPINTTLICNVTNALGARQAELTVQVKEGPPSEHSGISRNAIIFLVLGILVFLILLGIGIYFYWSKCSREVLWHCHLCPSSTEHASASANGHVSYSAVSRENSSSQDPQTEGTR

[1] = tested on: GFP+ B16-OVA cells phagocytosed by BMDMs; test: Phagocytosis assay, BMDMs with GFP+ B16-OVA cells; assay type: cell-based, mouse; conditions: 50 μM, flow cytometry
Experimental: (§2) Bone marrow-derived macrophage cells (BMDMs) from C57BL/6N mice were isolated and induced with 20 ng/mL of mouse granulocyte–macrophage colony-stimulating factor (GM-CSF, 315–03, Peprotech) for 7 days, with regular medium changes and cytokine replenishment during cell induction. The cells were then harvested for subsequent experiments. Subsequently, the cells were treated with SMC18 at a concentration of 50 μΜ. The anti-CD47 antibody (clone miap301, 16–0471-81, Invitrogen) was employed as a positive control with 20 µg/mL. Phagocytosis was measured by the co-culture of macrophages with green fluorescent protein (GFP^+) tumor cells (GFP^+ MC38 and GFP^+ B16-OVA cells) at a ratio of 1:4 in serum-free medium at 37 °C for 4 h. The cells were harvested and identified by flow cytometry using anti-F4/80 antibody (BM8, 17–4801-82, eBioscience). The phagocytosis rate was calculated as the percentage F4/80^+GFP^+ cells relative to the total number of total F4/80^+ cells. For confocal microscopy detection, BMDMs were labelled with DiR dye (R-22070, Beyotime) at a final concentration of 200 μM, followed by a 30-min staining period. After washing with PBS three times, the cells were cultured with DMEM medium devoid of serum for 2 h. Subsequently, MC38-EGFP cells were seeded onto BMDMs at a density of 4 × 10^6 cells per well. […]

[2] = tested on: GFP+ MC38 cells phagocytosed by BMDMs; test: Phagocytosis assay, BMDMs with GFP+ MC38 cells; assay type: cell-based, mouse; conditions: 50 μM
Experimental: as §2

hTIM-3/hGal-9 = hTIM-3/hGal-9 (Homo sapiens, UniProt O00182+Q8TDQ0); test: Blockade of other immune checkpoint pathways, TIM-3/Gal-9; assay type: cell-based; conditions: Fig. S2
Chain of hTIM-3/hGal-9 (Q8TDQ0 22-301): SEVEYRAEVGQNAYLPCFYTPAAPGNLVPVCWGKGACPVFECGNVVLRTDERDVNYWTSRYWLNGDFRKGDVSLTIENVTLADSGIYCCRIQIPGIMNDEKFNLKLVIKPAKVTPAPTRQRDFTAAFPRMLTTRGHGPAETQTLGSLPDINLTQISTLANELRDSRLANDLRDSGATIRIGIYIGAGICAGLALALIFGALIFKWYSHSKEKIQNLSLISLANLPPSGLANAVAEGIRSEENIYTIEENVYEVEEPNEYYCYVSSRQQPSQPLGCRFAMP
Chain of hTIM-3/hGal-9 (O00182 whole entry): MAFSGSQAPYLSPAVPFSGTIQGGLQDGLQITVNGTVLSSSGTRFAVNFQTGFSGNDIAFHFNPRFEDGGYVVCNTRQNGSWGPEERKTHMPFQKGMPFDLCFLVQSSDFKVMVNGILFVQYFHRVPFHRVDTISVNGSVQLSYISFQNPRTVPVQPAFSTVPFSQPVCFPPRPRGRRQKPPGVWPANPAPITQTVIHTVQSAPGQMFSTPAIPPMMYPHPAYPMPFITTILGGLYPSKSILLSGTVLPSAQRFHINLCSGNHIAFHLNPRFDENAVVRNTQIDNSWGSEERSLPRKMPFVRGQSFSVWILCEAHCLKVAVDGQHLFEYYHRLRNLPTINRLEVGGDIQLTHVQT

murine SIRPα (mSIRPα) = target: T2, murine SIRPα (mSIRPα) (Mus musculus, UniProt P97797); test: MST binding assay, murine SIRPα; conditions: SIRPα-IgV-His, read-out: dissociation constant (KD) for murine SIRPα
T2 construct: SIPRα-IgV-His (human: SIA-H5225, mouse: SIA-M52H4, ACRO Biosystems); His; purchased ACRO Biosystems SIA-M52H4
T2 sequence (P97797 32-137 limits assumed): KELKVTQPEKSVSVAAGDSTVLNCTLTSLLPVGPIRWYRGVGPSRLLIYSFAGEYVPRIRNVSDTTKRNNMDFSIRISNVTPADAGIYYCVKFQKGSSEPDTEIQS
Experimental: as §1

murine PD-L1 (mPD-L1) = target: T3, murine PD-L1 (mPD-L1) (Mus musculus, UniProt Q9EP73); test: MST binding assay, murine PD-L1; conditions: PD-L1-IgV-His, read-out: dissociation constant (KD) for murine PD-L1
T3 construct: PD-L1-IgV-His (human: 10,084-H08H, mouse: 50,010-M08H, Sino Biological); His; purchased Sino Biological 50,010-M08H
T3 sequence (Q9EP73 19-127 limits assumed): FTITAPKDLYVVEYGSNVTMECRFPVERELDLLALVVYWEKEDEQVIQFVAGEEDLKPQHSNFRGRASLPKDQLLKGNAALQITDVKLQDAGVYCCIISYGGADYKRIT
Experimental: as §1

human CD47/SIRPα = target: T4, human CD47/SIRPα (Homo sapiens, UniProt P78324); test: Cell-based blocking assay, human CD47/SIRPα; conditions: CHO-K1-hCD47 cells, SIRPα-Fc, flow cytometry; read-out: IC50 for blocking human CD47/SIRPα interaction
T4 construct: purchased ACRO Biosystems SIA-H5251; host or cells: CHO-K1-hCD47 cells carry the partner (lentiviral transfection)
T4 sequence (P78324 31-370 limits assumed): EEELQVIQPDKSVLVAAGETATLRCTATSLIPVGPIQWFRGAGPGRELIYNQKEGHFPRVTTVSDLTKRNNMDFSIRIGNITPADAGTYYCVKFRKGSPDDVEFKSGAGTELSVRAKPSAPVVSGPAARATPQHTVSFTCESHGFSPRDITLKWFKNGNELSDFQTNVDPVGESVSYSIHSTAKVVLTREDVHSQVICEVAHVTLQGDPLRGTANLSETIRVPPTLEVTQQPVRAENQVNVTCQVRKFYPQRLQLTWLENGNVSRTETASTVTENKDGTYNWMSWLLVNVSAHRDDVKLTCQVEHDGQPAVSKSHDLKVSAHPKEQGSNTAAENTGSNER
Experimental: The CHO-K1 cell line with stable expression of CD47 and PD-1 was constructed previously by our group. SMC18 was serially diluted using PBS 7.2 (containing 1% DMSO) and incubated with 100 ng of SIRPα-Fc protein (human: SIA-H5251, mouse: SIA-M5258, ACRO Biosystems) and 50 ng of PD-L1-Fc protein (human: 10,084-H02H, mouse: 50,010-M02H, Sino Biological) on ice for 30 min. The mixture was then added to the corresponding CHO-K1-CD47 or CHO-K1-PD-1 cells and further incubated on ice for 30 min. Afterward, PE-conjugated anti-human IgG (Fc) antibody (A18272, eBioscience) was added. The mean fluorescence intensity (MFI) of the cells was detected using flow cytometry (BD FACSCalibur) and the blocking efficiency was calculated.

Cc1cc(C)cc(NS(=O)(=O)c2ccc3[nH]cc(C(=O)NCCc4ccccc4)c(=O)c3c2)c1 [SMC18]
Kd (human PD-L1 (hPD-L1)): 29 ± 30 nM | inhibitory effect on hCD112R/hCD112 pathway (hCD112R/hCD112): no blocking effect; also recorded: did not impede | tyrosine phosphorylation levels of SIRPα (SIRPα): significantly suppressed | inhibitory effect on hTIGIT/hPVR pathway (hTIGIT/hPVR): no blocking effect; also recorded: did not impede | phagocytosis of B16-OVA cells by BMDMs [1]: enhances; also recorded: significantly increased | phagocytosis of MC38 by BMDMs (flow cytometry) ([2]; 4 h): significantly increased | macrophage phagocytosis of MC38 cells (confocal) ([2]; DiR-labelled BMDMs, MC38-EGFP, vs control group): significantly enhanced | inhibitory effect on hTIM-3/hGal-9 pathway (hTIM-3/hGal-9): no blocking effect; also recorded: did not impede | Kd (murine SIRPα (mSIRPα)): 2490 ± 1900 nM | Kd (murine PD-L1 (mPD-L1)): 25 ± 30 nM | IC50 (human CD47/SIRPα): 17800 ± 8200 nM
